The record followed here is publication PMC5218480 (PLoS ONE, 2017).

This assay concerns MV-4-11 cells. Kind of assay: Gene expression microarray analysis (Affymetrix PrimeView) and GSEA. Particulars: ProbeSet 11747888_a_at; LIST D. It counts as cell-based, human. Set-up: RFU PODN (11730768_x_at) / Fold change /veh PODN (11730768_x_at) / RFU LINC00158 (11744669_a_at) / Fold change /veh LINC00158 (11744669_a_at) / RFU DUSP10 (11751237_a_at) / Fold change /veh DUSP10 (11751237_a_at) / RFU ID3 (11757404_x_at) / Fold change /veh ID3 (11757404_x_at) / RFU PLEKHG5 (11737974_s_at) / Fold change /veh PLEKHG5 (11737974_s_at) / RFU LRRC4B (11730491_at) / Fold change /veh LRRC4B (11730491_at) / RFU GIMAP4 (11747438_a_at) / Fold change /veh GIMAP4 (11747438_a_at) / RFU KRT8 (11758183_x_at) / Fold change /veh KRT8 (11758183_x_at) / RFU CNN1 (11734310_a_at) / Fold change /veh CNN1 (11734310_a_at) / RFU VPS37D (11726825_at) / Fold change /veh VPS37D (11726825_at) / RFU C10orf10 (11716522_x_at) / Fold change /veh C10orf10 (11716522_x_at) / RFU KIR2DL2 /// KIR2DL4 /// KIR2DL5A /// KIR2DL5B /// KIR2DS1 /// KIR2DS2 /// KIR2DS3 /// KIR2DS4 /// KIR3DL3 /// KIR3DL3 /// KIR3DS1 (11738374_at) / Fold change /veh KIR2DL2 /// KIR2DL4 /// KIR2DL5A /// KIR2DL5B /// KIR2DS1 /// KIR2DS2 /// KIR2DS3 /// KIR2DS4 /// KIR3DL3 /// KIR3DL3 /// KIR3DS1 (11738374_at) / RFU C1QL1 (11718748_at) / Fold change /veh C1QL1 (11718748_at) / RFU TMPRSS4 (11747572_a_at) / Fold change /veh TMPRSS4 (11747572_a_at) / RFU HAMP (11756126_x_at) / Fold change /veh HAMP (11756126_x_at) / RFU RNFT2 (11725882_a_at) / Fold change /veh RNFT2 (11725882_a_at) / RFU NR4A2 (11747474_a_at) / Fold change /veh NR4A2 (11747474_a_at) / RFU ABCC12 (11746883_a_at) / Fold change /veh ABCC12 (11746883_a_at) / RFU TMEM136 (11760407_x_at) / Fold change /veh TMEM136 (11760407_x_at) / RFU CLDN22 /// WWC2 (11732394_at) / Fold change /veh CLDN22 /// WWC2 (11732394_at) / RFU HLA-DPB1 (11760878_x_at) / Fold change /veh HLA-DPB1 (11760878_x_at) / RFU SPINT1 (11716480_a_at) / Fold change /veh SPINT1 (11716480_a_at) / RFU GAP43 (11754022_s_at) / Fold change /veh GAP43 (11754022_s_at) / RFU A4GNT (11735810_at) / Fold change /veh A4GNT (11735810_at) / RFU PRB3 (11715151_x_at) / Fold change /veh PRB3 (11715151_x_at) / RFU TUBB4B (11761932_at) / Fold change /veh TUBB4B (11761932_at) / RFU CAPN14 (11732068_a_at) / Fold change /veh CAPN14 (11732068_a_at) / RFU TMCC2 (11721928_a_at) / Fold change /veh TMCC2 (11721928_a_at) / RFU IRGQ (11745062_a_at) / Fold change /veh IRGQ (11745062_a_at) / RFU FAM174B (11720279_a_at) / Fold change /veh FAM174B (11720279_a_at) / RFU TMPRSS4 (11748680_a_at) / Fold change /veh TMPRSS4 (11748680_a_at) / RFU FAM212B (11763350_a_at) / Fold change /veh FAM212B (11763350_a_at) / RFU PLEKHG5 (11743358_a_at) / Fold change /veh PLEKHG5 (11743358_a_at) / RFU ZSCAN30 (11745921_a_at) / Fold change /veh ZSCAN30 (11745921_a_at) / RFU CMKLR1 (11741424_a_at) / Fold change /veh CMKLR1 (11741424_a_at) / RFU LOC101060620 /// MAPK8IP1 (11723275_at) / Fold change /veh LOC101060620 /// MAPK8IP1 (11723275_at) / RFU SPTSSB (11747773_x_at) / Fold change /veh SPTSSB (11747773_x_at) / RFU PRSS12 (11739890_at) / Fold change /veh PRSS12 (11739890_at) / RFU BIN1 (11741810_x_at) / Fold change /veh BIN1 (11741810_x_at) / RFU WNT11 (11732464_a_at) / Fold change /veh WNT11 (11732464_a_at) / RFU C10orf10 (11716521_a_at) / Fold change /veh C10orf10 (11716521_a_at) / RFU C5orf56 (11738089_at) / Fold change /veh C5orf56 (11738089_at) / RFU CYB561 (11721691_x_at) / Fold change /veh CYB561 (11721691_x_at) / RFU ANKRD19P (11752326_a_at) / Fold change /veh ANKRD19P (11752326_a_at) / RFU OR2T12 /// OR2T33 /// OR2T8 (11738714_s_at) / Fold change /veh OR2T12 /// OR2T33 /// OR2T8 (11738714_s_at) / RFU VCAN (11748164_a_at) / Fold change /veh VCAN (11748164_a_at) / RFU JSRP1 (11732532_at) / Fold change /veh JSRP1 (11732532_at) / RFU KRTAP10-11 (11738290_x_at) / Fold change /veh KRTAP10-11 (11738290_x_at) / RFU MYO3A (11730013_a_at) / Fold change /veh MYO3A (11730013_a_at) / RFU EBF3 (11725865_a_at) / Fold change /veh EBF3 (11725865_a_at) / RFU CAMK2N1 (11719241_x_at) / Fold change /veh CAMK2N1 (11719241_x_at) / RFU C5orf56 (11738088_a_at) / Fold change /veh C5orf56 (11738088_a_at) / RFU OLFML3 (11715873_a_at) / Fold change /veh OLFML3 (11715873_a_at) / RFU LOC100653217 /// NTM (11731650_a_at) / Fold change /veh LOC100653217 /// NTM (11731650_a_at) / RFU MAPK11 (11762145_a_at) / Fold change /veh MAPK11 (11762145_a_at) / RFU FIZ1 (11724087_x_at) / Fold change /veh FIZ1 (11724087_x_at) / RFU OASL (11726364_x_at) / Fold change /veh OASL (11726364_x_at) / RFU SOX15 (11748057_x_at) / Fold change /veh SOX15 (11748057_x_at) / RFU CD79A (11719716_a_at) / Fold change /veh CD79A (11719716_a_at) / RFU HIST1H1D (11736915_at) / Fold change /veh HIST1H1D (11736915_at) / RFU CASKIN2 (11723855_a_at) / Fold change /veh CASKIN2 (11723855_a_at) / RFU LOC730098 (11760151_x_at) / Fold change /veh LOC730098 (11760151_x_at) / RFU OR4N2 (11742367_at) / Fold change /veh OR4N2 (11742367_at) / RFU PRRT2 (11749266_a_at) / Fold change /veh PRRT2 (11749266_a_at) / RFU SNX32 (11753110_a_at) / Fold change /veh SNX32 (11753110_a_at) / RFU CDHR5 (11726645_a_at) / Fold change /veh CDHR5 (11726645_a_at) / RFU RCAN1 (11760418_a_at) / Fold change /veh RCAN1 (11760418_a_at) / RFU FAM167A (11723789_a_at) / Fold change /veh FAM167A (11723789_a_at) / RFU FAM26E (11764081_at) / Fold change /veh FAM26E (11764081_at) / RFU ISYNA1 (11749810_s_at) / Fold change /veh ISYNA1 (11749810_s_at) / RFU ACY1 (11761880_at) / Fold change /veh ACY1 (11761880_at) / RFU 11764098_at / Fold change /veh 11764098_at / RFU SAMD14 (11745864_x_at) / Fold change /veh SAMD14 (11745864_x_at) / RFU NPB (11741838_a_at) / Fold change /veh NPB (11741838_a_at) / RFU TMPRSS6 (11731388_a_at) / Fold change /veh TMPRSS6 (11731388_a_at) / RFU KRTAP10-2 (11738614_at) / Fold change /veh KRTAP10-2 (11738614_at) / RFU ARHGAP8 /// PRR5-ARHGAP8 (11727945_x_at) / Fold change /veh ARHGAP8 /// PRR5-ARHGAP8 (11727945_x_at) / RFU KRTAP5-7 /// NADSYN1 (11734609_at) / Fold change /veh KRTAP5-7 /// NADSYN1 (11734609_at) / RFU RASL12 (11751679_a_at) / Fold change /veh RASL12 (11751679_a_at) / RFU CDKN2B (11736163_a_at) / Fold change /veh CDKN2B (11736163_a_at) / RFU PRF1 (11729649_at) / Fold change /veh PRF1 (11729649_at) / RFU, ZNF638 /// ZNF638-IT1 / Fold change vs veh, ZNF638 /// ZNF638-IT1 / RFU, PANK3 / Fold change vs veh, PANK3 / RFU, SH3YL1 / Fold change vs veh, SH3YL1 / RFU, ZEB2 / Fold change vs veh, ZEB2 / RFU, NRIP1 / Fold change vs veh, NRIP1 / RFU, PTTG1IP / Fold change vs veh, PTTG1IP / RFU, CAPN2 / Fold change vs veh, CAPN2 / RFU, MED14 / Fold change vs veh, MED14 / RFU, SNORA58 / Fold change vs veh, SNORA58 / RFU, C1orf63 / Fold change vs veh, C1orf63 / RFU, LRRFIP1 / Fold change vs veh, LRRFIP1 / RFU, NDUFAF7 / Fold change vs veh, NDUFAF7 / RFU, SLC12A2 / Fold change vs veh, SLC12A2 / RFU, IBTK / Fold change vs veh, IBTK / RFU, ESF1 / Fold change vs veh, ESF1 / Fold change vs veh, TMEM50B / RFU, TAOK1 / Fold change vs veh, TAOK1 / RFU, ACBD3 / Fold change vs veh, ACBD3 / RFU, TMA16 / Fold change vs veh, TMA16 / RFU, RWDD3 / Fold change vs veh, RWDD3 / RFU, BCAT1 / Fold change vs veh, BCAT1 / RFU, EDEM3 / Fold change vs veh, EDEM3 / RFU, TMEM33 / Fold change vs veh, TMEM33 / RFU, WDR75 / Fold change vs veh, WDR75 / RFU, AHCTF1 / Fold change vs veh, AHCTF1 / RFU, TFRC / Fold change vs veh, TFRC / RFU, ZDHHC17 / Fold change vs veh, ZDHHC17 / RFU, NOM1 / Fold change vs veh, NOM1 / RFU, ARL8B / Fold change vs veh, ARL8B / RFU, ZBTB11 / Fold change vs veh, ZBTB11 / RFU, TAMM41 / Fold change vs veh, TAMM41 / RFU, KIAA1704 /// LOC100996395 / Fold change vs veh, KIAA1704 /// LOC100996395 / RFU, ING1 / Fold change vs veh, ING1 / RFU, TRMT61B / Fold change vs veh, TRMT61B / RFU, FUBP3 / Fold change vs veh, FUBP3 / RFU, TP53 / Fold change vs veh, TP53 / RFU, TNKS2 / Fold change vs veh, TNKS2 / RFU, ZFP14 / Fold change vs veh, ZFP14 / RFU, ACTR2 / Fold change vs veh, ACTR2 / RFU, PPP3R1 / Fold change vs veh, PPP3R1 / RFU, PIK3R1 / Fold change vs veh, PIK3R1 / RFU, HNRNPA1 / Fold change vs veh, HNRNPA1 / RFU, RNF170 / Fold change vs veh, RNF170 / RFU, ZNF28 / Fold change vs veh, ZNF28 / RFU, RNGTT / Fold change vs veh, RNGTT / RFU, OGT / Fold change vs veh, OGT / RFU, BRD1 / Fold change vs veh, BRD1 / RFU, MARS / Fold change vs veh, MARS / RFU, ZNF655 / Fold change vs veh, ZNF655 / RFU, FAHD1 / Fold change vs veh, FAHD1 / RFU, BDP1 / Fold change vs veh, BDP1 / RFU, LRRCC1 / Fold change vs veh, LRRCC1 / RFU, ARID1A / Fold change vs veh, ARID1A / RFU, ZNF146 / Fold change vs veh, ZNF146 / RFU, ZNF330 / Fold change vs veh, ZNF330 / RFU, GPN3 / Fold change vs veh, GPN3 / RFU, C9orf123 / Fold change vs veh, C9orf123 / RFU, N4BP2L2 / Fold change vs veh, N4BP2L2 / RFU, ARFIP1 / Fold change vs veh, ARFIP1 / RFU, FAM179B / Fold change vs veh, FAM179B / RFU, BCL10 / Fold change vs veh, BCL10 / RFU, UHRF1BP1L / Fold change vs veh, UHRF1BP1L / RFU, BET1 / Fold change vs veh, BET1 / RFU, CNOT2 / Fold change vs veh, CNOT2 / RFU, ZNF268 / Fold change vs veh, ZNF268 / Fold change vs veh, ZNF507 / RFU, DGCR2 / Fold change vs veh, DGCR2 / RFU, WDSUB1 / Fold change vs veh, WDSUB1 / Fold change vs veh, HSP90B1 /// MIR3652 / RFU, ADSS / Fold change vs veh, ADSS / RFU, GK / Fold change vs veh, GK / RFU, ZNF148 / Fold change vs veh, ZNF148 / RFU, TAF9 / Fold change vs veh, TAF9 / RFU, SLC1A5 / Fold change vs veh, SLC1A5 / RFU, SLMO2 / Fold change vs veh, SLMO2 / RFU, ABCC4 / Fold change vs veh, ABCC4 / RFU, LOC101060439 /// RAP1B / Fold change vs veh, LOC101060439 /// RAP1B / RFU, RFX7 / Fold change vs veh, RFX7 / RFU, GTPBP10 / Fold change vs veh, GTPBP10 / RFU, CNEP1R1 / Fold change vs veh, CNEP1R1 / RFU, BIVM-ERCC5 /// ERCC5 / Fold change vs veh, BIVM-ERCC5 /// ERCC5 / RFU, ILF3 / Fold change vs veh, ILF3 / RFU 11762660_at / Fold change /veh 11762660_at / RFU VCAN (11757783_s_at) / Fold change /veh VCAN (11757783_s_at) / RFU DDX43 (11728927_at) / Fold change /veh DDX43 (11728927_at) / RFU KRT8 (11758188_x_at) / Fold change /veh KRT8 (11758188_x_at) / RFU NKD1 (11759106_at) / Fold change /veh NKD1 (11759106_at) / RFU SRD5A1 (11742802_a_at) / Fold change /veh SRD5A1 (11742802_a_at) / RFU TPSAB1 /// TPSB2 (11721975_s_at) / Fold change /veh TPSAB1 /// TPSB2 (11721975_s_at) / RFU GSTM3 (11746129_a_at) / Fold change /veh GSTM3 (11746129_a_at) / RFU IL23R (11737362_x_at) / Fold change /veh IL23R (11737362_x_at) / RFU TMEM51 (11727254_a_at) / Fold change /veh TMEM51 (11727254_a_at) / RFU PIWIL2 (11732686_x_at) / Fold change /veh PIWIL2 (11732686_x_at) / RFU ORM1 (11744905_x_at) / Fold change /veh ORM1 (11744905_x_at) / RFU CCDC152 (11743942_at) / Fold change /veh CCDC152 (11743942_at) / RFU ECM1 (11717891_a_at) / Fold change /veh ECM1 (11717891_a_at) / RFU IL23R (11748794_a_at) / Fold change /veh IL23R (11748794_a_at) / RFU TNFAIP8L3 (11732012_x_at) / Fold change /veh TNFAIP8L3 (11732012_x_at) / RFU MBOAT4 (11741988_at) / Fold change /veh MBOAT4 (11741988_at) / RFU 11764193_at / Fold change /veh 11764193_at / RFU TMEM53 (11763286_at) / Fold change /veh TMEM53 (11763286_at) / RFU MAGEB2 (11727129_at) / Fold change /veh MAGEB2 (11727129_at) / RFU TMEM200A (11744735_a_at) / Fold change /veh TMEM200A (11744735_a_at) / RFU CCDC152 (11751479_a_at) / Fold change /veh CCDC152 (11751479_a_at) / RFU FAM211A (11726209_a_at) / Fold change /veh FAM211A (11726209_a_at) / RFU RGS16 (11746705_a_at) / Fold change /veh RGS16 (11746705_a_at) / RFU VCAN (11755009_s_at) / Fold change /veh VCAN (11755009_s_at) / RFU RHOB (11743442_s_at) / Fold change /veh RHOB (11743442_s_at) / RFU RGS16 (11720943_a_at) / Fold change /veh RGS16 (11720943_a_at) / RFU RGS16 (11720944_at) / Fold change /veh RGS16 (11720944_at) / RFU, VPS4B / Fold change vs veh, VPS4B / RFU, CREB1 / Fold change vs veh, CREB1 / RFU, DNAJC13 / Fold change vs veh, DNAJC13 / RFU, GNAQ / Fold change vs veh, GNAQ / RFU, CDK5R1 / Fold change vs veh, CDK5R1 / RFU, ZRANB3 / Fold change vs veh, ZRANB3 / RFU, CUL4A / Fold change vs veh, CUL4A / RFU, CCNY / Fold change vs veh, CCNY / RFU, UFL1 / Fold change vs veh, UFL1 / RFU, COG3 / Fold change vs veh, COG3 / RFU, DIAPH2 / Fold change vs veh, DIAPH2 / RFU, SKA2 / Fold change vs veh, SKA2 / RFU, AFF3 / Fold change vs veh, AFF3 / RFU, LMF1 / Fold change vs veh, LMF1 / RFU, IPO11 / Fold change vs veh, IPO11 / RFU, DFFB / Fold change vs veh, DFFB / RFU, FOXP1 / Fold change vs veh, FOXP1 / RFU, CARD8 / Fold change vs veh, CARD8 / RFU, STRN3 / Fold change vs veh, STRN3 / RFU, ADK / Fold change vs veh, ADK / RFU, RASSF2 / Fold change vs veh, RASSF2 / RFU, WIPF1 / Fold change vs veh, WIPF1 / RFU, LARP1B / Fold change vs veh, LARP1B / RFU, RASA1 / Fold change vs veh, RASA1 / RFU, RB1 / Fold change vs veh, RB1 / RFU, PPFIA1 / Fold change vs veh, PPFIA1 / RFU, MAT2A / Fold change vs veh, MAT2A / RFU, CCT5 / Fold change vs veh, CCT5 / RFU, WDR92 / Fold change vs veh, WDR92 / RFU, CUX1 / Fold change vs veh, CUX1 / RFU, TTC7A / Fold change vs veh, TTC7A / RFU, TMEM135 / Fold change vs veh, TMEM135 / RFU, DEPTOR / Fold change vs veh, DEPTOR / RFU, CPM / Fold change vs veh, CPM / RFU, DNAJB6 / Fold change vs veh, DNAJB6 / RFU, CACNA2D3 / Fold change vs veh, CACNA2D3 / RFU, DTX4 / Fold change vs veh, DTX4 / RFU, TFCP2 / Fold change vs veh, TFCP2 / RFU, GMCL1 /// GMCL1P1 / Fold change vs veh, GMCL1 /// GMCL1P1 / RFU, AEBP2 / Fold change vs veh, AEBP2 / RFU, SNHG1 /// SNORD22 /// SNORD25 /// SNORD26 /// SNORD27 /// SNORD28 /// SNORD29 /// SNORD31 / Fold change vs veh, SNHG1 /// SNORD22 /// SNORD25 /// SNORD26 /// SNORD27 /// SNORD28 /// SNORD29 /// SNORD31 / Fold change (Aza/veh), C12orf56 (ProbeSet 11735607_a_at) / Fold change (ACY-1035/veh), C12orf56 (ProbeSet 11735607_a_at) / Fold change (Aza/veh), FGFR1OP (ProbeSet 11751329_s_at) / Fold change (ACY-1035/veh), FGFR1OP (ProbeSet 11751329_s_at) / Fold change (Aza/veh), VPS36 (ProbeSet 11739960_a_at) / Fold change (ACY-1035/veh), VPS36 (ProbeSet 11739960_a_at) / RFU SYPL1 (11715823_x_at) / Fold change /veh SYPL1 (11715823_x_at) / RFU IGFBP7 (11715501_s_at) / Fold change /veh IGFBP7 (11715501_s_at) / RFU REEP3 (11722064_at) / Fold change /veh REEP3 (11722064_at) / RFU IGLL1 (11728026_x_at) / Fold change /veh IGLL1 (11728026_x_at): dose or concentration left out as unconfirmed.

Turning to `Nc1ccc(-c2cccs2)cc1NC(=O)c1ccc2c(c1)cc(C1CC1)n2CCN1CCOCC1` [ACY-1035], the “Fold change vs veh, SH3YL1” value is recorded as 0.93.
